In one assay the target is ROCK2 (Homo sapiens (Human), UniProt O75116). Nature of the assay: ROCK2 kinase inhibition assay (peptide phosphorylation, LabChip 3000). The format is biochemical. To be noted: 7 μM ATP, 2.5 nM ROCK2, 3 hours at 25° C. The procedure:
(§1) The peptide is >98% purity by Capillary Electrophoresis. The peptide is phosphorylated by the protein kinase ROCK1 or ROCK2. The ROCK1 or ROCK2 enzyme, substrate, and cofactors (ATP and Mg^2+) are combined in a well of a microtiter plate and incubated for 3 hours at 25° C. At the end of the incubation, the reaction is quenched by the addition of an EDTA-containing buffer. The substrate and product are separated and quantified electrophoretically using the microfluidic-based LABCHIP® 3000 Drug Discovery System from Caliper Life Sciences (Hopkinton, Mass.).
(§2) The components of the assay mixture are:
(§3) 10 μM Sodium Orthovanadate
(§4) 10 μM Beta-Glycerophosphate
(§5) 5 μM ATP (for ROCK1) or 7 μM ATP (for ROCK2)
(§6) 3 nM ROCK1 or 2.5 nM ROCK2 enzyme
(§7) Substrate and product peptides present in each sample are separated electrophoretically using the LABCHIP® 3000 capillary electrophoresis instrument. […] Change in the relative fluorescence intensity of the substrate and product peaks is the parameter measured reflecting enzyme activity. Capillary electrophoregramms (RDA acquisition files) are analyzed using HTS Well Analyzer software (Caliper Life Sciences, Hopkinton, Mass.). The kinase activity in each sample is determined as the product to sum ratio (PSR): P/(S+P), where P is the peak height of the product peptide and S is the peak height of the substrate peptide. For each compound, enzyme activity is measured at various concentrations (12 concentrations of compound spaced by 3× dilution intervals). Negative control samples (0%-inhibition in the absence of inhibitor) and positive control samples (100%-inhibition in the presence of 20 mM EDTA) are assembled in replicates of four and are used to calculate %-inhibition values for each compound at each concentration. Percent inhibition (Pinh) is determined using the following equation: Pinh=(PSR0%−PSRinh)/(PSR0%−PSR100%)*100 where PSRinh is the product sum ratio in the presence of inhibitor, PSR0% is the average product sum ratio in the absence of inhibitor, and PSR100% is the average product sum ratio in 100%-inhibition control samples. The IC50 values of inhibitors are determined by fitting the inhibition curves (Pinh versus inhibitor concentration) by 4 parameter sigmoidal dose-response model using XLfit 4 software (IBDS).

Another assay deals with MV411 cells. Nature of the assay: Cell viability assay (CellTiter-Blue), MV411. The format is cell-based. To be noted: for FLT3-ITD+ Selectivity (K562/MV411): ratio of K562 to MV411 IC50; for IC50: Homo sapiens, MV4-11, MV411 (ITD-FLT3+), 72 hours treatment. The method, then: (§8) Cell viability in the presence of varying concentrations of the above listed compounds at different time points was used to assess cytotoxicity and the effect of the compounds on cell proliferation.
This procedure measures the conversion of the indicator dye (resazurin) to resorufin, an indicator of cell viability. […] Fluorescence values were measured at 535/590 nm using a Beckman-Coulter DTX-880 microplate reader.
Cells were grown to 70% confluency, trypsinized, counted, and seeded in 96 well flat-bottom plates at a final concentration of 2.5×10^3-5×10^3 cells/well (Day 0). Cells were allowed to incubate in growth media for 24 hours to allow for maximum adhesion. Treatment with the test agents or standard agents began on Day 1 and continued for 72 hours. At the 72-hour time point, treatment containing media was removed. […] Experiments were repeated at least twice with the same concentrations to determine growth inhibitory activity.
(§9) For single agent and combination studies, data from each experiment was collected and expressed as % Cell Growth using the following calculation: % Cell Growth=(ftest/fvehicle)×100 Where ftest is the fluorescence of the tested sample, and fvehicle is the fluorescence of the vehicle in which the drug is dissolved. Dose response graphs and IC50 values were generated using Prism 4 software (GraphPad) using the following equation: Y=(Top−Bottom)/(1+10^((logIC50-X)[…])) Where X is the logarithm of the concentration and Y is the response. Y starts at the Bottom and goes to the Top with a sigmoid shape.
(§10) The experiments also evaluated the selectivity of the compounds for inhibiting growth of cancer cells carrying a mutation in the Flt3 gene. The MV411 cell line expresses the mutant allele of Flt3 with internal tandem duplications (ITD) of the gene. See Quentmeier et al., “FLT3 Mutations in Acute Myeloid Leukemia Cell Lines,” Leukemia 17(1), 2003, 120-124. […] See Grafone et al., “Monitoring of FLT3 Phosphorylation Status and Its Response to Drugs By Flow Cytometry in AML Blast Cells,” Hematol Oncol. 26(3), 2008, 159-166.
(Alamar Blue is a resazurin reagent that responds to reducing activity.)

For the next assay, the system named is K562 cells. The experiment in a line: Cell viability assay (CellTiter-Blue), K562. The format is cell-based. To be noted: Homo sapiens; K562 (does not express ITD-FLT3), 72 hours treatment. The procedure:
as §8
Cell viability was measured by the […]-BLUE® cell viability assay from Promega (Madison, Wis.). This procedure measures the conversion of the indicator dye (resazurin) to resorufin, an indicator of cell viability. Following treatment, growth media was removed and cells were incubated with 20 μl of […]-BLUE® Reagent and growth media for 1-4 hours at 37° C. Fluorescence values were measured at 535/590 nm using a Beckman-Coulter DTX-880 microplate reader.
Cells were grown to 70% confluency, trypsinized, counted, and seeded in 96 well flat-bottom plates at a final concentration of 2.5×10^3-5×10^3 cells/well (Day 0). Cells were allowed to incubate in growth media for 24 hours to allow for maximum adhesion. Treatment with the test agents or standard agents began on Day 1 and continued for 72 hours. At the 72-hour time point, treatment containing media was removed. Viable cell numbers were quantified by the […]-BLUE® cell viability assay as described above. Experiments were repeated at least twice with the same concentrations to determine growth inhibitory activity. Results from these studies were used to calculate an IC50 value (concentration of drug that inhibits cell growth by 50 percent of control) for each compound.
as §9, §10

In the next assay the target is ROCK1 (Homo sapiens (Human), UniProt Q13464). The experiment in a line: ROCK1 kinase inhibition assay (peptide phosphorylation, LabChip 3000). The format is biochemical. To be noted: 5 μM ATP, 3 nM ROCK1, 3 hours at 25° C. The procedure: as §1, §2, §3, §4, §5, §6
Chain of ROCK1 (Q13464 whole entry): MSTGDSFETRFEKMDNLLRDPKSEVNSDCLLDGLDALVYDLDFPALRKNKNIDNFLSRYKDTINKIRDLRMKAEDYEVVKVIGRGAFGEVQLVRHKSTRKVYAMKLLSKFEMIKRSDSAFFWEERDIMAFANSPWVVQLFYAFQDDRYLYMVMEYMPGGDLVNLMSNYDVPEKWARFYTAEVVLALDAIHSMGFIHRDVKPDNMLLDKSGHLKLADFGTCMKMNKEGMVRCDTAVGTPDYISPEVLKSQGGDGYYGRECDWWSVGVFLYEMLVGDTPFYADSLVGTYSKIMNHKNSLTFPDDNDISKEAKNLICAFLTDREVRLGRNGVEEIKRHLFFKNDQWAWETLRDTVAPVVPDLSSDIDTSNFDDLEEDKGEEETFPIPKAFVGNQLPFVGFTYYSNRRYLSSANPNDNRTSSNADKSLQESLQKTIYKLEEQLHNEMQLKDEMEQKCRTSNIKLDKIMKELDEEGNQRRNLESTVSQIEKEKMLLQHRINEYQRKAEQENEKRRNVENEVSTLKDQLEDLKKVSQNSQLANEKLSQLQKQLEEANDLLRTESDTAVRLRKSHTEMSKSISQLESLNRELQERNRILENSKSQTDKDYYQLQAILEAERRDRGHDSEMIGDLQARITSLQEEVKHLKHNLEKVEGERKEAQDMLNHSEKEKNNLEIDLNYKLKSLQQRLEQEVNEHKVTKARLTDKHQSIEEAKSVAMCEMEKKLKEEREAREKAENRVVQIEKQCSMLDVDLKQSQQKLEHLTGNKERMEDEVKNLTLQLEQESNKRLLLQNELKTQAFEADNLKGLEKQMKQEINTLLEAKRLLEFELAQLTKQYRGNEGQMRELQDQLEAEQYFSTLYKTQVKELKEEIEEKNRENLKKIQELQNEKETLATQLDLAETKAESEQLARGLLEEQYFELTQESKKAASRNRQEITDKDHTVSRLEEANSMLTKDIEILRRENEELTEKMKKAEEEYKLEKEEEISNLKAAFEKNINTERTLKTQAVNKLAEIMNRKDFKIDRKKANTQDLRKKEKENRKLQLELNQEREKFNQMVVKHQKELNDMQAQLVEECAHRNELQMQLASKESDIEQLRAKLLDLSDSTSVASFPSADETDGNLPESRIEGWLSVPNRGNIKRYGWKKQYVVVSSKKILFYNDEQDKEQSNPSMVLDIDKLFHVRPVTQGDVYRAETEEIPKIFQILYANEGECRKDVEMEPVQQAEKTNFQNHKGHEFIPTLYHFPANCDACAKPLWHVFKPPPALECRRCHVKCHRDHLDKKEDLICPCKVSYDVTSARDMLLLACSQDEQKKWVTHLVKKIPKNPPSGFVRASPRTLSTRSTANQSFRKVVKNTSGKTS
as §7, with “Negative control samples (0%-inhibition in the absence of inhibitor) and positive control samples (100%-inhibition in the presence of 20 mM EDTA) are assembled in replicates of four and are used to calculate %-inhibition values for each compound at each concentration.” left out

Broadly, the IC50 is the point on the concentration scale where inhibition reaches its midpoint.

Chain of ROCK2 (O75116 whole entry): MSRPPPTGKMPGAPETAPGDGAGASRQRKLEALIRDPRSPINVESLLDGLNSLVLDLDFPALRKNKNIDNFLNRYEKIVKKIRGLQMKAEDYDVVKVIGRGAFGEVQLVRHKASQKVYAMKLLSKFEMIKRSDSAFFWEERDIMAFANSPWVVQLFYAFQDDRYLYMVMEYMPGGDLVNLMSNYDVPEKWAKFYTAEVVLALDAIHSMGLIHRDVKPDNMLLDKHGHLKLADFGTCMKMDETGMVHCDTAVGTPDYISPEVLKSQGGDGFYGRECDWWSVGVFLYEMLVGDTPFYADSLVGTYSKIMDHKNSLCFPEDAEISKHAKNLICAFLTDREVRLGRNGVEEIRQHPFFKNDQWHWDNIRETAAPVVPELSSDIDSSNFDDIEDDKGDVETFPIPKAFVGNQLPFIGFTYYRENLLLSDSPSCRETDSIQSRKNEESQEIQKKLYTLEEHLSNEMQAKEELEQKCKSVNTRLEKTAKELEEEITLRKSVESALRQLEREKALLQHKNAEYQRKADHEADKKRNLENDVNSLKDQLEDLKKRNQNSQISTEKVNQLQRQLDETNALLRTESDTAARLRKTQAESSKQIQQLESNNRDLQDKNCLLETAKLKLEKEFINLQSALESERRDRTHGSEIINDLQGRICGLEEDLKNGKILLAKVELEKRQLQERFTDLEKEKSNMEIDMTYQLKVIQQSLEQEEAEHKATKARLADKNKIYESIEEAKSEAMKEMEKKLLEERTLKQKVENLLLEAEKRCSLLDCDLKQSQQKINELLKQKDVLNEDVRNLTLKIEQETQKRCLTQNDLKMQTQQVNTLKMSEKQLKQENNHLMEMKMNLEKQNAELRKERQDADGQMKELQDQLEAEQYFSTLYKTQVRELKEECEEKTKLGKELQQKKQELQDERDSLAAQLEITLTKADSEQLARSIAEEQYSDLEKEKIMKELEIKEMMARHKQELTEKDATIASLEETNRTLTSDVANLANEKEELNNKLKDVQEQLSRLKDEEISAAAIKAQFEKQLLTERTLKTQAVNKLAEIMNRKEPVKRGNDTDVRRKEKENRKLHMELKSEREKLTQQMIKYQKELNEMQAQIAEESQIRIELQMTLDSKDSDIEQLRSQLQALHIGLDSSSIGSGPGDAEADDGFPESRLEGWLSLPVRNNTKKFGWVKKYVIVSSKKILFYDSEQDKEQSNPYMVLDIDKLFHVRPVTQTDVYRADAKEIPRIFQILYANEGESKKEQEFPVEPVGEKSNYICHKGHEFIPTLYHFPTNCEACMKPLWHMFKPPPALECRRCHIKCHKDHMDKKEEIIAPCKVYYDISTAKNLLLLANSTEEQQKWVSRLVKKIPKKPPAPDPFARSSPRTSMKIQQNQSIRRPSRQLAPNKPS

`O=C(N[C@H](CO)c1cccc(F)c1)c1cc(-c2ccncc2)[nH]n1` [Compound 1]: the IC50 at ROCK2 is 27.6 nM; with K562 cells, above 100000 nM; at ROCK1, 207 nM. The “FLT3-ITD+ Selectivity (K562/MV411)” value with MV411 cells was above 1.
For `O=C(N[C@H](CO)c1ccccc1)c1cc(-c2ccncc2)n[nH]1` [Compound 68], the IC50 against ROCK2 is 509 nM.
The same measure, in the same setting: under `C[C@@H](NC(=O)c1cc(-c2ccncc2)n[nH]1)c1cccc(Cl)c1` [Compound 66] stands 9.8 nM.
`COc1cccc([C@@H](C)NC(=O)c2cc3ccc(-c4cn[nH]c4)nc3s2)c1` [Compound 58]: the IC50 worked out at 4.5 nM against ROCK2, 1600 nM in the assay with MV411 cells and 31000 nM in the assay with K562 cells. For the same compound, the “FLT3-ITD+ Selectivity (K562/MV411)” value in the assay with MV411 cells is given as 19.
Turning to `C[C@@H](NC(=O)c1cc(-c2ccncc2)n[nH]1)c1cccc(F)c1` [Compound 64], the IC50 against ROCK2 stood at 29.2 nM.
Turning to `COc1cccc(CN(CCN(C)C)C(=O)c2cc3ccc(-c4cn[nH]c4)nc3s2)c1` [Compound 59], the IC50 on ROCK2 turned out to be 20 nM; with MV411 cells it was 4500 nM; in the assay on K562 cells, 25000 nM. The “FLT3-ITD+ Selectivity (K562/MV411)” value in the assay on MV411 cells came to 6.
As to `COc1cccc(CNC(=O)c2cc3ccc(-c4cn[nH]c4)nc3s2)c1` [Compound 40], the concentration for half-maximal inhibition (IC50) at ROCK2 came out at 17 nM; with MV411 cells, 14800 nM; against ROCK1, 164 nM. Besides, the “FLT3-ITD+ Selectivity (K562/MV411)” value in the assay with MV411 cells was above 7.
In the case of `CC(C)NC(=O)c1cccc(CNC(=O)c2cc3ccc(-c4cn[nH]c4)nc3s2)c1` [Compound 60], in the assay with MV411 cells, the IC50 came out at 12900 nM and the “FLT3-ITD+ Selectivity (K562/MV411)” value came to 5. In addition, the IC50 in the assay on K562 cells worked out at 65000 nM.
Take `COc1cccc([C@@H](CO)NC(=O)c2cc3ccc(-c4cn[nH]c4)nc3s2)c1` [Compound 61]: the IC50 on ROCK2 stood at 7.1 nM; in the assay with MV411 cells, 8200 nM; with K562 cells it was 54000 nM. Moreover, the “FLT3-ITD+ Selectivity (K562/MV411)” value in the assay with MV411 cells was 7.
Take `O=C(N[C@H](CO)c1cccc(Cl)c1)c1cc(-c2ccncc2)n[nH]1` [Compound 67]: at ROCK2, 10.1 nM corresponded to half-maximal inhibition (IC50).
For the compound `COc1cccc(CNC(=O)c2cc3ccc(-c4ccncc4)nc3s2)c1` [Compound 39], the IC50 against ROCK2 was 17.4 nM; in the assay with MV411 cells, 7100 nM; with K562 cells it was above 100000 nM; at ROCK1, 65.1 nM. Further, in the assay with MV411 cells, the “FLT3-ITD+ Selectivity (K562/MV411)” value is on record as above 14.

Values taken from US10807966B2, “Heterocyclic compounds as kinase inhibitors” (TRANSLATIONAL DRUG DEVELOPMENT, LLC, priority 2016, dated 2020).
